Laboratory results reported in US10974081B2, “Treatment and prevention of sleep disorders” (Purdue Pharma L.P., priority 2016, dated 2021).
Converted amounts (≈) assume the structure as drawn. Read-outs that look alike come from different tables or passages of the source.

Columns and labels:
mu-opioid receptor = mu-opioid receptor (Homo sapiens, UniProt P35372); conditions: determined in Example 18 of U.S. Pat. No. 8,476,271; cited from earlier work
ORL-1 receptor = ORL-1 receptor (Homo sapiens, UniProt P41146); test: Functional [^35S]GTPγS binding assay, ORL-1; format: biochemical; conditions: from ORL-1 Emax results in Table 21
[1] = Rat protein binding, equilibrium dialysis of rat plasma; format: in vitro ADME; conditions: rat, rat plasma, 2 μg/mL, 24 hours dialysis at 37° C.
Method: (§1) The extent of in vitro binding of Compound (1F), […], or W-212393 to rat plasma was determined as an assessment of the protein binding of each compound, i.e., compound unavailable for modulating receptor activity. Plasma from rats containing a tested compound in one chamber of a dialysis cell was dialyzed with PBS in the other chamber; thereafter, the supernatant from each chamber was analyzed for the concentration of the tested compound present. A cell suitable for equilibrium dialysis was used in the determinations. The dialysis membrane described in Example 10 (with molecular mass cutoff of 12,000-14,000 Da) separated the dialysis cell into two chambers. The membrane was soaked with purified water and PBS before being placed into the dialysis cell. 4 μL of an iv formulation of each tested compound was added to 996 μL of rat plasma, the latter obtained using syringe containing heparin and EDTA by the procedure described in Example 10, to provide a plasma sample with a tested compound concentration of 2 μg/mL. 450 μL of the plasma sample was applied to one chamber (plasma chamber) of the dialysis cell. A 450 μL aliquot of PBS was applied to the other chamber (PBS chamber) of the dialysis cell. The dialysis study was conducted in duplicate for each tested compound. After 24 hours of equilibrium dialysis at 37° C., 30 μL of liquid from the plasma chamber of the dialysis cell was collected and to this was added 270 μL of fresh PBS (this combination was designated Sample “1”). Then, 270 μL of liquid from the PBS chamber of the dialysis cell was collected and to this was added 30 μL of control rat plasma (i.e., rat plasma never exposed to any test compound, this combination was designated Sample “2”). Thereafter, each sample was mixed well and stored in a freezer until the next analysis step. After the protein precipitated in the freezer, each supernatant thusly obtained was analyzed by LC-MS-MS for unbound test compound. […] Thereafter, the percentage of rat protein-bound (“RPB”) tested compound was calculated as follows: […]

rat plasma = test: as above; format: in vitro ADME
Method: as §1

human liver microsomes = test: In vitro metabolic stability, human liver microsomes; format: in vitro ADME; conditions: 2 μM, % remaining after 30 minutes at 37° C.
Method: (§2) The comparative in vitro metabolic stabilities of Compounds (1F), […], and W-212393 were determined upon exposure to human liver microsomes or rat liver microsomes according to a procedure disclosed in, e.g., Example 14 of U.S. Pat. No. 9,290,488, which is hereby incorporated by reference in its entirety. Liver microsomes from Crj;CD rats or humans were incubated with 2 μM of each tested compound; thereafter, the supernatant was analyzed by HPLC-MS for the concentration of the tested compound present. Human liver microsomes, pooled, 20 mg/mL, were obtained from […] #H0610). […] Alternatively and if desired, rat liver microsomes can be obtained commercially from, e.g., XenoTech (Sprague-Dawley rat liver microsomes, pooled, 20 mg/mL, cat #R1000). β-NADPH (β-nicotinamide adenine dinucleotide 2'-phosphate reduced tetrasodium salt hydrate) was obtained from Oriental Yeast Co., Ltd. (Tokyo, Japan). Each tested compound, present at an initial concentration of 2 μM, was incubated at 37° C. in the presence of 0.5 mg/mL of either human microsomes or rat microsomes in suspension in 50 mM Tris-HCl buffer (7.4 pH), 150 mM KCl, 10 mM MgCl2, and 1 mM β-NADPH. Incubation was initiated upon the addition of a 100-fold concentrated solution of the tested compound to one of the microsome preparations. Incubation was terminated by addition of a two-fold volume of a 1/1 mixture of acetonitrile/methanol after either 0 minutes or 30 minutes of incubation at 37° C. Thereafter, proteins and other macromolecules from the microsome preparation were removed by centrifugation. All incubations were conducted in duplicate. […] The HPLC system consisted of a Waters 2795 separations module (Waters Corp., Milford, Mass.) equipped with an inline degasser, temperature controlled auto-sampler, and column oven. The analytical column was a Waters […], 2.1 mm×20 mm column. The mass analyzer was a Waters ZQ, single quadrupole mass spectrometer equipped with an electrospray ionization source operating in the positive ionization mode and utilizing a stainless steel spray capillary. […]

[2] = Aqueous solubility at pH about 6.8; format: physicochemical; conditions: 25 °C, pH 6.8, aqueous buffer, kinetic from dmso stock
rat liver microsomes = test: In vitro metabolic stability, rat liver microsomes; format: in vitro ADME; conditions: 2 μM, % remaining after 30 minutes at 37° C.
Method: as §2

[3] = Free unbound compound fraction, equilibrium dialysis of rat serum; format: in vitro ADME; conditions: male, Crl:CD (SD), rat, rat serum; 2 μg/mL, 24 hours dialysis at 37° C.
Method: (§3) The extent of in vitro binding of Compound (1F) or W-212393 to rat serum was determined as an assessment of the availability of free unbound compound for modulating receptor activity according to a procedure disclosed in, e.g., Example 15 of U.S. Pat. No. 9,290,488, which is hereby incorporated by reference in its entirety. Serum from rats containing a tested compound in one chamber of a dialysis cell was dialyzed with phosphate buffered saline (“PBS”) in the other chamber; thereafter, the supernatant from each chamber was analyzed for the concentration of the tested compound present. […] The final concentration of each tested compound in the serum sample was adjusted to 2 μg/mL by adding an appropriate volume of PBS. A cell suitable for equilibrium dialysis was used in the determinations. A SPECTRA/POR dialysis membrane (with molecular mass cutoff of 12,000-14,000 Da, Spectrum Laboratories, Inc., Rancho Dominguez, Calif.) separated the dialysis cell into two chambers. A 500 μL aliquot of the serum sample containing a tested compound was applied to one chamber (serum chamber) of the dialysis cell. A 500 μL aliquot of PBS was applied to the other chamber (PBS chamber) of the dialysis cell. The dialysis study was conducted in duplicate for each tested compound. After 24 hours of equilibrium dialysis at 37° C., 30 μL of liquid from the serum chamber of the dialysis cell was collected and to this was added 270 μL of fresh PBS (this combination was designated Sample “A”). Then, 270 μL of liquid from the PBS chamber of the dialysis cell was collected and to this was added 30 μL of control rat serum (i.e., rat serum never exposed to any test compound, this combination was designated Sample “B”). […] Each supernatant was analyzed by LC-MS-MS. […] Thereafter, the percentage of free unbound tested compound was calculated from the ratio of the tested compound amount determined from Sample B divided by the sum of the tested compound amounts determined from Sample A and Sample B.

rat serum = test: as above; format: in vitro ADME; conditions: average of multiple determinations
Method: as §3

Chain of ORL-1 receptor (P41146 whole entry): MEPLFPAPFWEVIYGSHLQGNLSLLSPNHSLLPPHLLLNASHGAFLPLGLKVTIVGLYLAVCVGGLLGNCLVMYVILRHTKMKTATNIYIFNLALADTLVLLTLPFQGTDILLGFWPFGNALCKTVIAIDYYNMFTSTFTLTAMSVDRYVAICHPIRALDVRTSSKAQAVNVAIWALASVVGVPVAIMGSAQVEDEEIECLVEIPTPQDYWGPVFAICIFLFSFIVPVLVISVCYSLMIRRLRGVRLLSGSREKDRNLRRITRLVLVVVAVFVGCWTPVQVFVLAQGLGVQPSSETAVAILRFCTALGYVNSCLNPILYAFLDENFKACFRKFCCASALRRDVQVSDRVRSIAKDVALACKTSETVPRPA
Chain of mu-opioid receptor (P35372 whole entry): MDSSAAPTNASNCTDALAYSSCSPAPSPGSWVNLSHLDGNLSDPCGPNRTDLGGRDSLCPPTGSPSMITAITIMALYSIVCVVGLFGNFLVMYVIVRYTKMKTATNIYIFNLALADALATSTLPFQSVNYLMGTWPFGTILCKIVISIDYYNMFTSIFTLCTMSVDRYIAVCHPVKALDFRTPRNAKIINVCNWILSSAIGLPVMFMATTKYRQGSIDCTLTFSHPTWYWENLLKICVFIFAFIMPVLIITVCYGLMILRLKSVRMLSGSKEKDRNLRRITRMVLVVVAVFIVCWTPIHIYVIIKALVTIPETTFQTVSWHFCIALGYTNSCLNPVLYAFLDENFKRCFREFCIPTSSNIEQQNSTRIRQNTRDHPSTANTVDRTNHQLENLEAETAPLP

Row | SMILES | GTPγS Mu Emax (mu-opioid receptor) | agonist classification at ORL-1 from Emax (ORL-1 receptor) | fraction unbound at 24 h, 2 μg/mL [1] | Rat Protein Binding (%) (rat plasma; 2 μg/mL, 24 hours dialysis at 37° C.) | bound compound fraction, average (rat plasma; average of multiple determinations) | Human Metabolic Stability (%) (human liver microsomes) | solubility at 16 h ([2]; 50 mM phosphate buffer, second procedure (50 mM phosphate buffer, HPLC), read-out: Solubility at pH 6.8) | solubility at 16 h ([2]; first procedure (JP2 solution, LC-MS), read-out: Solubility at pH 6.8) | solubility at 16 h ([2]; pH of about 6.8, over both determinations, read-out: aqueous solubility) | Rat Metabolic Stability (%) (rat liver microsomes) | fraction unbound at 24 h, 2 μg/mL [3] | free unbound compound fraction, average (rat serum)
1 | O=C(O)c1nc2ccccc2n([C@H]2C[C@H]3CCC[C@@H](C2)N3C2CC3CCCC(C3)C2)c1=O (stereo partly drawn) [Compound (1C)] | 0% | partial agonists |  |  |  |  |  |  |  |  |  | 
2 | O=C(O)c1nc2ccccc2n([C@H]2C[C@H]3CCC[C@@H](C2)N3C2CC3CCCC(C3)C2)c1=O (stereo partly drawn) [Compound (1F)] |  |  | 0.491 | 53.0% | 52% | 98.7% | 35 µM (≈ 15.2 µg/mL) | > 50 µM | ≥ 35 µM | 95.3% | 0.65 to 0.7 | 67.5%
